In patent US20100305068A1, “COMPOUNDS AND METHODS FOR MODULATING PROTEIN TRAFFICKING” (priority 2006, published 2010):
Like-named read-outs stand apart in the source and are kept apart here.

Tested on: pdr5 ypt1^ts cells
Experiment: microbe, parasite or virus in culture
Assay type: cell-based, yeast
Conditions: for minimal effective concentration: Saccharomyces cerevisiae, lowest concentration tested giving growth above the 0 μM background, read-out: ypt1-ts MRC (minimal rescue concentration); for minimal effective concentration / optical density, ypt1-ts, 0.39 / optical density, ypt1-ts, 0.78 / optical density, ypt1-ts, 1.56 / optical density, ypt1-ts, 3.13 / optical density, ypt1-ts, 6.25 / optical density, ypt1-ts, 12.5 / optical density, ypt1-ts, 25: Table 2; for optical density, ypt1-ts, 0.39: 0.39 μM compound; for optical density, ypt1-ts, 0.39 / optical density, ypt1-ts, 0.78 / optical density, ypt1-ts, 1.56 / optical density, ypt1-ts, 3.13 / optical density, ypt1-ts, 6.25 / optical density, ypt1-ts, 12.5 / optical density, ypt1-ts, 25: background (0 μM) 0.058; for optical density, ypt1-ts, 0.78: 0.78 μM compound; for optical density, ypt1-ts, 1.56: 1.56 μM compound; for optical density, ypt1-ts, 3.13: 3.13 μM compound; for optical density, ypt1-ts, 6.25: 6.25 μM compound; for optical density, ypt1-ts, 12.5: 12.5 μM compound; for optical density, ypt1-ts, 25: 25 μM compound
In short: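 Whole-cell yeast growth-rescue screen: pdr5 ypt1^ts cells (efflux pump inactivated), growth-arrested at 37° C., cultured with compounds at 37° C. Restoration of growth read by optical density.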

[1] = Table 3, 3.13 uM compound, 37° C., background (0 uM) 0.077
[2] = Table 3, 12.5 uM compound, 37° C., background (0 uM) 0.077
[3] = Table 3, 50 uM compound, 37° C., background (0 uM) 0.077

Structure (SMILES)	optical density, 3.13 uM [1]	optical density, 12.5 uM [2]	optical density, 50 uM [3]	minimal effective concentration (37° C.)	optical density, ypt1-ts, 0.39 (37° C.)	optical density, ypt1-ts, 0.78 (37° C.)	optical density, ypt1-ts, 1.56 (37° C.)	optical density, ypt1-ts, 3.13 (37° C.)	optical density, ypt1-ts, 6.25 (37° C.)	optical density, ypt1-ts, 12.5 (37° C.)	optical density, ypt1-ts, 25 (37° C.)	optical density, 3.13 uM	optical density, 12.5 uM	optical density, 50 uM
CC(C)c1ccc2c(c1)CCC1C(C)(C(N)=O)CCCC21C (centres unmarked) [DEHYDRO- ABIETAMIDE]	0.272	0.419	0.041	–	–	–	–	–	–	–	–	–	–	–
C=CCCCCCCCCCCC/C=C/C(O)COC(C)=O (centres unmarked) [DEHYDRO- AVOCATIN - 1-ACETATE]	0.116	0.329	0.365	–	–	–	–	–	–	–	–	–	–	–
COc1c2occc2cc2c(=O)c3c(oc12)COc1cc2c(cc1-3)OCO2 [DEHYDRO- PACHYRRHIZONE]	–	–	–	12.5 µM	0.1	0.072	0.088	0.11	0.124	0.149	0.211	–	–	–
CC(=O)O[C@@H]1CC2C(C)(C)CCC[C@]2(C)C2CC[C@]3(C)C(=CC(=O)O[C@H]3c3ccoc3)[C@@]21C (some centres unmarked) [DEOXO- DEOXY- DIHYDRO- GEDUNIN]	0.245	0.479	0.452	–	–	–	–	–	–	–	–	–	–	–
CC1(C)C2CC(=O)O[C@@]3(C)C4=CC(=O)O[C@@H](c5ccoc5)[C@]4(C)CCC3[C@@]2(C)C=C[C@H]1O (some centres unmarked) [DEOXY- ANDIROBIN LACTONE]	0.723	0.678	0.642	–	–	–	–	–	–	–	–	–	–	–
CC(CCC(=O)O)[C@H]1CCC2C3CC[C@H]4C[C@H](O)CC[C@]4(C)C3C[C@H](O)[C@@]21C (some centres unmarked) [DEOXY- CHOLIC ACID, reference compound]	0.233	0.481	0.133	–	–	–	–	–	–	–	–	–	–	–
CC(=O)O[C@@H]1CC2C(C)(C)C(=O)C=C[C@]2(C)C2CC[C@]3(C)C(=CC(=O)O[C@H]3c3ccoc3)[C@@]21C (some centres unmarked) [DEOXY- GEDUNIN]	0.092	0.141	0.328	–	–	–	–	–	–	–	–	–	–	–
COc1ccc2c(c1)OCC(Cc1ccc(OC)c(OC(C)=O)c1)C2=O (centres unmarked) [DEOXY- SAPPANONE B 7,3′-DI- METHYL ETHER ACETATE]	0.137	0.17	0.374	–	–	–	–	–	–	–	–	–	–	–
COc1ccc2c(c1)OCC(Cc1ccc(OC)c(OC)c1)C2=O (centres unmarked) [DEOXY- SAPPANONE B TRIMETHYL ETHER]	0.107	0.203	0.514	–	–	–	–	–	–	–	–	–	–	–
CC1(C)C2CC(=O)O[C@]3(C)C4=CC(=O)O[C@@H](c5ccoc5)[C@]4(C)CCC3[C@@]2(C)C=C[C@H]1O (some centres unmarked) [DEOXYANDIROBIN- LACTONE]	–	–	–	3.13 µM	0.107	0.082	0.089	0.137	0.249	0.524	0.613	–	–	–
O=C([O-])Cc1ccccc1Nc1c(Cl)cccc1Cl.[Na+] [DICLOFENAC SODIUM, reference compound]	–	–	–	12.5 µM	0.085	0.072	0.077	0.089	0.092	0.126	0.242	–	–	–
C/C=C(/C(=C/C)c1ccc(O)cc1)c1ccc(O)cc1 [DIENESTROL, reference compound]	0.142	0.309	0.044	–	–	–	–	–	–	–	–	–	–	–
CC/C(=C(/CC)c1ccc(O)cc1)c1ccc(O)cc1 [DIETHYLSTILBESTROL, reference compound]	–	–	–	12.5 µM	0.089	0.076	0.091	0.108	0.103	0.163	0.162	–	–	–
CC1(C)C(=O)CC[C@@]2(C)C1C[C@@H](O)[C@@]1(C)C3=CC(=O)O[C@@H](c4ccoc4)[C@]3(C)CCC21 (some centres unmarked) [DIHYDRO- 7- […]- OXYGEDUNIN]	0.197	0.568	0.328	–	–	–	–	–	–	–	–	–	–	–
Cc1c(O)c(O)cc2c1CC=C1[C@@]2(C)CC[C@@]2(C)C3C[C@](C)(C(=O)O)CC[C@]3(C)CC[C@]12C (some centres unmarked) [DIHYDRO- CELASTROL]	0.119	0.526	0.33	–	–	–	–	–	–	–	–	–	–	–
COC(=O)C[C@H]1C(C)(C)[C@@H](OC(C)=O)[C@@H]2CC3C(CC[C@]4(C)C3CC(=O)O[C@H]4c3ccoc3)[C@]1(C)C2=O (some centres unmarked) [DIHYDRO- FISSINOLIDE]	0.079	0.085	0.308	–	–	–	–	–	–	–	–	–	–	–
CC(=O)O[C@@H]1c2c(ccc3ccc(=O)oc23)OC(C)(C)[C@@H]1OC(=O)CC(C)C [DIHYDROSAMIDIN]	–	–	–	12.5 µM	0.091	0.068	0.079	0.105	0.097	0.14	0.221	–	–	–
COc1ccc(C(=O)c2ccccc2O)c(O)c1 [DIOXY- BENZONE, reference compound]	0.088	0.12	0.579	–	–	–	–	–	–	–	–	–	–	–
CN(C)C(=O)Nc1ccc(Cl)c(Cl)c1 [DIURON]	–	–	–	25 µM	0.082	0.073	0.087	0.081	0.095	0.101	0.132	–	–	–
COc1ccc2c(c1OC)OC[C@@H](c1ccc(OC)c(OC)c1OC)C2 [DUARTIN, DIMETHYL ETHER]	–	–	–	3.13 µM	0.166	0.092	0.111	0.14	0.239	0.287	0.474	–	–	–
C[C@]12CCC3C(CC[C@H]4C[C@H](O)CC[C@]34C)C1CC[C@@H]2O (some centres unmarked) [EPIANDROSTANEDIOL]	–	–	–	12.5 µM	0.082	0.073	0.068	0.082	0.099	0.145	0.321	–	–	–
CCCSP(=O)(OCC)SCCC [ETHOPROP]	–	–	–	–	–	–	–	–	–	–	–	0.118	0.134	0.251
CC(=O)O[C@@H]1CC2C(C)(C)C(=O)C=C[C@]2(C)C2CC[C@@]3(C)[C@H](c4ccoc4)OC(=O)[C@H]4O[C@]43[C@@]21C (some centres unmarked) [GEDUNIN]	0.109	0.231	0.183	–	–	–	–	–	–	–	–	–	–	–
Cc1ccc(C)c(OCCCC(C)(C)C(=O)O)c1 [GEMFIBROZIL, reference compound]	–	–	–	3.13 µM	0.106	0.082	0.1	0.219	0.442	0.615	0.358	–	–	–
COc1ccc2c(c1)O[C@H]1c3ccc(OC)cc3OC[C@@H]21 [HOMOPTEROCARPIN]	–	–	–	25 µM	0.083	0.064	0.065	0.071	0.09	0.117	0.44	–	–	–
